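Grown in 96-well plates, cells were treated for 48 hours with each compound at five concentrations. Insufficient inhibition: endpoint recorded as highest concentration tested. Here, GI50 denotes the concentration required for 50% inhibition of growth.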 The source made the active and inactive calls. No stated cut-off is given here; in the data, active = GI50 up to about 1.1 µM and inactive = higher.
Experiments:
Test in all cases: NCI-60 cell line screen, 48 h
CAKI-1 = tested on: CAKI-1
RPMI-8226 = tested on: RPMI-8226
UACC-257 = tested on: UACC-257
OVCAR-8 = tested on: OVCAR-8
NCI-H522 = tested on: NCI-H522
IGROV-1 = tested on: IGROV-1
MOLT-4 = tested on: MOLT-4
SN12C = tested on: SN12C
MDA-MB-231 = tested on: MDA-MB-231
U-251 = tested on: U-251
SF-295 = tested on: SF-295
ACHN = tested on: ACHN
UACC-62 = tested on: UACC-62
UO-31 = tested on: UO-31
KM12 = tested on: KM12
SR = tested on: SR
NCI-H460 = tested on: NCI-H460
HT-29 = tested on: HT-29
NCI-H23 = tested on: NCI-H23
SW-620 = tested on: SW-620
NCI-H226 = tested on: NCI-H226
OVCAR-3 = tested on: OVCAR-3
HOP-62 = tested on: HOP-62
TK-10 = tested on: TK-10
EKVX = tested on: EKVX
M14 = tested on: M14
PC-3 = tested on: PC-3
HOP-92 = tested on: HOP-92
SK-MEL-28 = tested on: SK-MEL-28
SK-OV-3 = tested on: SK-OV-3
BT-549 = tested on: BT-549
786-0 = tested on: 786-0
SF-268 = tested on: SF-268
Malme-3M = tested on: Malme-3M
LOX IMVI = tested on: LOX IMVI
OVCAR-4 = tested on: OVCAR-4
COLO 205 = tested on: COLO 205
SF-539 = tested on: SF-539
MCF7 = tested on: MCF7
SK-MEL-5 = tested on: SK-MEL-5
SNB-19 = tested on: SNB-19
DU-145 = tested on: DU-145
HCC 2998 = tested on: HCC 2998
MDA-MB-435 = tested on: MDA-MB-435
HCT-116 = tested on: HCT-116
A549 = tested on: A549
CCRF-CEM = tested on: CCRF-CEM
Hs-578T = tested on: Hs-578T
HCT-15 = tested on: HCT-15
T47D = tested on: T47D
OVCAR-5 = tested on: OVCAR-5
NCI/ADR-RES = tested on: NCI/ADR-RES
SK-MEL-2 = tested on: SK-MEL-2
RXF 393 = tested on: RXF 393
A498 = tested on: A498
K562 = tested on: K562
SNB-75 = tested on: SNB-75
HL-60 = tested on: HL-60

`CN(C)CCn1c2c(c3ccccc31)CCc1ccccc1-2` was tested, and the GI50 (CAKI-1) was 14.9 µM (inactive), the GI50 (RPMI-8226) was 6.49 µM (inactive) and the GI50 (UACC-257) was 14.6 µM (inactive). The GI50 (OVCAR-8) was 16 µM (inactive), the GI50 (NCI-H522) was 15.9 µM (inactive) and the GI50 (IGROV-1) was 10 µM (inactive). The GI50 (MOLT-4) was 10.8 µM (inactive), the GI50 (SN12C) was 13.8 µM (inactive) and the GI50 (MDA-MB-231) was 13.9 µM (inactive). For the same molecule, the GI50 (U-251) was 13.6 µM (inactive), the GI50 (SF-295) was 16.9 µM (inactive) and the GI50 (ACHN) was 16.3 µM (inactive). The GI50 (UACC-62) was 13 µM (inactive), the GI50 (UO-31) was 13.6 µM (inactive) and the GI50 (KM12) was 13.4 µM (inactive). The GI50 (SR) was 10.8 µM (inactive), the GI50 (NCI-H460) was 14.4 µM (inactive) and the GI50 (HT-29) was 8.99 µM (inactive). For the same molecule, the GI50 (NCI-H23) was 17.4 µM (inactive), the GI50 (SW-620) was 18.8 µM (inactive) and the GI50 (NCI-H226) was 12.8 µM (inactive). The GI50 (OVCAR-3) was 14.6 µM (inactive), the GI50 (HOP-62) was 15.7 µM (inactive) and the GI50 (TK-10) was 16.7 µM (inactive). The GI50 (EKVX) was 17.4 µM (inactive), the GI50 (M14) was 13.5 µM (inactive) and the GI50 (PC-3) was 11.4 µM (inactive). For the same molecule, the GI50 (HOP-92) was 14 µM (inactive), the GI50 (SK-MEL-28) was 15.8 µM (inactive) and the GI50 (SK-OV-3) was 18.7 µM (inactive). For the same molecule, the GI50 (BT-549) was 14.5 µM (inactive), the GI50 (786-0) was 14.8 µM (inactive) and the GI50 (SF-268) was 17.9 µM (inactive). The GI50 (Malme-3M) was 16.1 µM (inactive), the GI50 (LOX IMVI) was 17 µM (inactive) and the GI50 (OVCAR-4) was 14.3 µM (inactive). For the same molecule, the GI50 (COLO 205) was 11.3 µM (inactive), the GI50 (SF-539) was 13.4 µM (inactive) and the GI50 (MCF7) was 16.8 µM (inactive). For the same molecule, the GI50 (SK-MEL-5) was 6.1 µM (inactive), the GI50 (SNB-19) was 16.3 µM (inactive) and the GI50 (DU-145) was 16.1 µM (inactive). For the same molecule, the GI50 (HCC 2998) was 0.569 µM (active), the GI50 (MDA-MB-435) was 17.4 µM (inactive) and the GI50 (HCT-116) was 12 µM (inactive). For the same molecule, the GI50 (A549) was 15 µM (inactive), the GI50 (CCRF-CEM) was 18.7 µM (inactive) and the GI50 (Hs-578T) was 15.1 µM (inactive). The GI50 (HCT-15) was 10.7 µM, the GI50 (T47D) was 15.8 µM (inactive) and the GI50 (OVCAR-5) was 17.9 µM (inactive). For the same molecule, the GI50 (NCI/ADR-RES) was 15.6 µM (inactive) and the GI50 (SK-MEL-2) was 15.3 µM (inactive).
For `CC(C)=C1C(=O)C[C@]2(C)C/C=C(\C)CC/C=C(\C)CC[C@@H]12`, the GI50 (RXF 393) was 7.29 µM (inactive), the GI50 (CAKI-1) was 7.96 µM (inactive) and the GI50 (RPMI-8226) was 11.9 µM (inactive). The GI50 (UACC-257) was 11.1 µM (inactive), the GI50 (OVCAR-8) was 8.51 µM (inactive) and the GI50 (NCI-H522) was 6.97 µM (inactive). For the same molecule, the GI50 (IGROV-1) was 9.4 µM (inactive), the GI50 (MOLT-4) was 8.61 µM (inactive) and the GI50 (SN12C) was 9.42 µM (inactive). For the same molecule, the GI50 (MDA-MB-231) was 7.89 µM (inactive), the GI50 (U-251) was 7.62 µM (inactive) and the GI50 (SF-295) was 11.3 µM (inactive). For the same molecule, the GI50 (ACHN) was 9.02 µM (inactive), the GI50 (UACC-62) was 7.74 µM (inactive) and the GI50 (UO-31) was 7.73 µM (inactive). The GI50 (KM12) was 8.67 µM (inactive), the GI50 (SR) was 9.86 µM (inactive) and the GI50 (HT-29) was 9.08 µM (inactive). For the same molecule, the GI50 (NCI-H23) was 10.2 µM (inactive), the GI50 (SW-620) was 9.31 µM (inactive) and the GI50 (NCI-H226) was 8.69 µM (inactive). For the same molecule, the GI50 (OVCAR-3) was 8.53 µM (inactive), the GI50 (HOP-62) was 9.08 µM (inactive) and the GI50 (TK-10) was 9.42 µM (inactive). The GI50 (A498) was 20.8 µM (inactive), the GI50 (EKVX) was 11.2 µM (inactive) and the GI50 (M14) was 7.87 µM (inactive). For the same molecule, the GI50 (PC-3) was 11.8 µM (inactive), the GI50 (HOP-92) was 9.53 µM (inactive) and the GI50 (SK-MEL-28) was 8.22 µM (inactive). For the same molecule, the GI50 (SK-OV-3) was 18.9 µM (inactive), the GI50 (BT-549) was 10.9 µM (inactive) and the GI50 (786-0) was 8.69 µM (inactive). The GI50 (SF-268) was 8.93 µM (inactive), the GI50 (K562) was 6.65 µM (inactive) and the GI50 (OVCAR-4) was 15.3 µM (inactive). The GI50 (COLO 205) was 8.51 µM (inactive), the GI50 (SF-539) was 8.57 µM (inactive) and the GI50 (MCF7) was 11.5 µM (inactive). The GI50 (SK-MEL-5) was 8.38 µM (inactive), the GI50 (SNB-19) was > 50 µM (inactive) and the GI50 (DU-145) was 16.7 µM (inactive). The GI50 (HCC 2998) was 7.53 µM (inactive), the GI50 (MDA-MB-435) was 9.53 µM (inactive) and the GI50 (HCT-116) was 8.32 µM (inactive). The GI50 (A549) was 14.1 µM (inactive), the GI50 (CCRF-CEM) was 9.23 µM (inactive) and the GI50 (Hs-578T) was 11 µM (inactive). For the same molecule, the GI50 (HCT-15) was 8.28 µM, the GI50 (T47D) was 14.9 µM (inactive) and the GI50 (OVCAR-5) was 12.1 µM (inactive). For the same molecule, the GI50 (SNB-75) was 9.66 µM (inactive), the GI50 (NCI/ADR-RES) was 7.36 µM (inactive) and the GI50 (SK-MEL-2) was 7.85 µM (inactive).
In the case of `O=S(=O)(c1ccccc1)n1c(C(O)c2ccccc2)cc2ccccc21` (configuration not stated), the GI50 (RXF 393) is reported as 14.3 µM (inactive), the GI50 (CAKI-1) is reported as 17.7 µM (inactive) and the GI50 (RPMI-8226) is reported as > 100 µM (inactive). For the same molecule, the GI50 (UACC-257) was 16.2 µM (inactive), the GI50 (OVCAR-8) was 16.9 µM (inactive) and the GI50 (IGROV-1) was 15.5 µM (inactive). For the same molecule, the GI50 (MOLT-4) was 36.4 µM (inactive), the GI50 (MDA-MB-231) was 17.3 µM (inactive) and the GI50 (U-251) was 16.7 µM (inactive). The GI50 (SF-295) was 16.9 µM (inactive), the GI50 (ACHN) was 15.7 µM (inactive) and the GI50 (UACC-62) was 12.9 µM (inactive). For the same molecule, the GI50 (UO-31) was 11.7 µM (inactive), the GI50 (KM12) was 15 µM (inactive) and the GI50 (NCI-H460) was 25.3 µM (inactive). The GI50 (HT-29) was 13.4 µM (inactive), the GI50 (NCI-H23) was 18.9 µM (inactive) and the GI50 (SW-620) was 24 µM (inactive). The GI50 (NCI-H226) was 13.1 µM (inactive), the GI50 (OVCAR-3) was 16.7 µM (inactive) and the GI50 (HOP-62) was 17.9 µM (inactive). For the same molecule, the GI50 (TK-10) was 17.3 µM (inactive), the GI50 (A498) was 10.2 µM (inactive) and the GI50 (EKVX) was 17.4 µM (inactive). The GI50 (M14) was 14.9 µM (inactive), the GI50 (PC-3) was 15.7 µM (inactive) and the GI50 (HOP-92) was 12.7 µM (inactive). For the same molecule, the GI50 (SK-MEL-28) was 19.6 µM (inactive), the GI50 (SK-OV-3) was 15 µM (inactive) and the GI50 (BT-549) was 15.8 µM (inactive). For the same molecule, the GI50 (786-0) was 14.1 µM (inactive), the GI50 (SF-268) was 16.3 µM (inactive) and the GI50 (Malme-3M) was 18.3 µM (inactive). The GI50 (LOX IMVI) was 30.1 µM (inactive), the GI50 (K562) was 49.4 µM (inactive) and the GI50 (OVCAR-4) was 18.1 µM (inactive). For the same molecule, the GI50 (HL-60) was 11.4 µM (inactive), the GI50 (COLO 205) was 15.9 µM (inactive) and the GI50 (SF-539) was 16.7 µM (inactive). For the same molecule, the GI50 (MCF7) was 21.2 µM (inactive), the GI50 (SK-MEL-5) was 14.6 µM (inactive) and the GI50 (SNB-19) was 13.7 µM (inactive). The GI50 (DU-145) was 33.9 µM (inactive), the GI50 (HCC 2998) was 17.5 µM (inactive) and the GI50 (MDA-MB-435) was 16.6 µM (inactive). For the same molecule, the GI50 (HCT-116) was 16.5 µM (inactive), the GI50 (A549) was 14.5 µM (inactive) and the GI50 (CCRF-CEM) was 9.46 µM (inactive). For the same molecule, the GI50 (Hs-578T) was 10.9 µM (inactive), the GI50 (HCT-15) was 21.3 µM and the GI50 (T47D) was 21.3 µM (inactive). For the same molecule, the GI50 (OVCAR-5) was 15.7 µM (inactive), the GI50 (SNB-75) was 14.7 µM (inactive) and the GI50 (NCI/ADR-RES) was 13.1 µM (inactive). For the same molecule, the GI50 (SK-MEL-2) was 17.1 µM (inactive).

— ChEMBL document CHEMBL1201862, “PubChem BioAssay data set” (2004)
